Measured values published in patent publication US4088772A, “Methanodibenzocycloheptapyrroles” (E. I. Du Pont de Nemours and Company, priority 1975, dated 1978).
Structures can show the parent of a compound that is named as a salt. Where two headings read alike, the source gives them in different places.

Key:
in vivo = details: mouse, in vivo, po
female white mice = experiment: animal or person; details: Mus musculus, po, oral, mice
[1] = system: phenylquinone-induced writhing; experiment: Phenylquinone writhing test (analgesia); type: in vivo, mouse (Carworth CF1 S female); details: Mus musculus
Source text: This mouse test is predictive of analgesic response in humans. [E. Siegmund, R. Cadmus and G. Lee, Proc. Soc.
ED50 values were obtained graphically from the data.

[2] = read-out: Catatonia ED50, Table III
[3] = read-out: Exploratory Loss Visual ED50, Table III
[4] = read-out: Muscle Tone ED50, Table III
[5] = read-out: Ptosis ED50, Table III
[6] = read-out: Reflexes Grip ED50, Table III
[7] = read-out: Reflexes Lift ED50, Table III
[8] = read-out: Reflexes Pinna ED50, Table III
[9] = read-out: Catatonia ED50, Table 1
[10] = read-out: Exploratory Loss Visual ED50, Table 1
[11] = read-out: Muscle Tone ED50, Table 1
[12] = read-out: Reflexes Grip ED50, Table 1
[13] = read-out: Reflexes Lift ED50, Table 1
[14] = read-out: Reflexes Pinna ED50, Table 1

Compound	LD50 at 24 h (in vivo) [mg/kg]	ED50 (female white mice; [2]) [mg/kg]	ED50 (female white mice; [3]) [mg/kg]	ED50 (female white mice; [4]) [mg/kg]	ED50 (female white mice; [5]) [mg/kg]	ED50 (female white mice; [6]) [mg/kg]	ED50 (female white mice; [7]) [mg/kg]	ED50 (female white mice; [8]) [mg/kg]	ED50 ([1]; po, Table III, mice) [mg/kg]	ED50 (in vivo) [mg/kg]	ED50 (female white mice; [9]) [mg/kg]	ED50 (female white mice; [10]) [mg/kg]	ED50 (female white mice; [11]) [mg/kg]	ED50 (female white mice; read-out: Ptosis ED50, Table 1) [mg/kg]	ED50 (female white mice; [12]) [mg/kg]	ED50 (female white mice; [13]) [mg/kg]	ED50 (female white mice; [14]) [mg/kg]	ED50 ([1]; po, Table 1, mice) [mg/kg]	ED50 (in vivo; Tremors ED50, Table 1, mice) [mg/kg]	ED50 ([1]; Table 1, oral, mice) [mg/kg]
O=C(O)c1ccc2c(c1)[C@]13C[C@H]2c2ccccc2[C@H]1CN(CC1CCCC1)C3 (relative stereo) [Example 73, 2-Cyclopentylmethyl-2,3,8,12b-tetrahydro-1H-3a,8-methanodibenzo[3,4:6,7]cyclohepta[1,2-c]pyrrole-5-carboxylic Acid Hydrochloride]	> 324	60	60	36	36	> 324	100	36	21											
CNS(=O)(=O)c1ccc2c(c1)[C@]13C[C@H]2c2ccccc2[C@H]1CN(CC1CCCC1)C3 (relative stereo) [Example 88, 2-Cyclopentylmethyl-2,3,8,12b-tetrahydro-1H-3a,8-methanodibenzo[3,4:6,7]cyclohepta[1,2-c]pyrrole-5-N-methylsulfonamide Hydrochloride]	> 324	300	20	200	36	> 324	200	100	< 130											
CC(C1CCCC1)N1C[C@@H]2c3ccccc3[C@@H]3C[C@@]2(C1)c1ccccc13 (stereo partly shown) [Example 50, 2-(1-Cyclopentylethyl)-2,3,8,12b-tetrahydro-1H-3a,8-methanodibenzo[3,4:6,7]cyclohepta[1,2-c]pyrrole]	> 324									> 324	20	20	36	60	300	60	36	23		
FC(F)c1ccc2c(c1)[C@]13C[C@H]2c2ccccc2[C@H]1CN(CC1CCCC1)C3 (relative stereo) [Example 78, 5-Difluoromethyl-2-cyclopentylmethyl-2,3,8,12b-tetrahydro-1H-3a,8-methanodibenzo[3,4:6,7]cyclohepta[1,2c]pyrrole Hydrochloride]	> 324	20	7	7	< 4	> 324	20	7	< 130											
c1ccc2c(c1)[C@@H]1C[C@@]3(CN(C[C@H]4C[C@H]5CC[C@@H]4C5)C[C@H]23)c2ccccc21 (relative stereo) [Example 36, 2-(2-Endo-bicyclo[2.2.1]heptylmethyl)-2,3,8,12b-tetrahydro-1H-3a,8-methanodibenzo[3,4:6,7]cyclohepta[1,2-c]pyrrole]	> 324									> 324	60	60	60	20	> 324	60	100	9.8		
c1ccc(OCCN2C[C@@H]3c4ccccc4[C@@H]4C[C@@]3(C2)c2ccccc24)cc1 (relative stereo) [Example 40, 2-(2-Phenoxyethyl)-2,3,8,12b-tetrahydro-1H-3a,8-methanodibenzo[3,4:6,7]cyclohepta[1,2-c]pyrrole]	> 324									> 324	12	60	20	7	> 324	20	12	5.3		
CCN1CC2c3ccccc3C3CC2(C1)c1ccccc13 (stereo not shown) [Example 12, 2-Ethyl-2,3,8,12b-tetrahydro-1H-3a,8-methanodibenzo[3,4:6,7]cyclohepta[1,2-c]pyrrole]	200										12	20	36	12	100	12	12		200	4.3
